According to patent US9981968B2, “Substituted pyrrolo[2,3-d]pyrimidines for the treatment of cancer and proliferative disorders” (Northwestern University, priority 2013, dated 2018):

System: MM.1S cells
Assay: MTS CellTiter 96 cell proliferation assay, MM.1S
Assay type: cell-based, human
Details: 0.1-10 μM, MTS assay, FIG. 1, compared with 8-amino adenosine
Experimental: Cell viability was assessed by MTS assay as follows.
The MTS CellTiter 96 assay is a colorimetric method to assess the number of viable cells based on the conversion of a tetrazolium compound (MTS) to a formazan product by the mitochondrial dehydrogenase enzyme of the cells. This assay is used to determine the number of viable cells remaining following a drug treatment in comparison to the number of viable cells that are only treated with the drug vehicle (control cells). The amount of formazan product in the control cells is normalized to 100% and the amount of formazan in the drug treated cells is expressed as a percentage of control. This is used to generate dose response curve and estimate the drug concentration that produced a 50% decrease in the number of viable cells.

Structure (SMILES) | decreasing cell proliferation
Cc1ncnc2c1c(C(F)(F)F)cn2CC1CCN(C(=O)OC(C)(C)C)CC1 [NUCC-0000482] | not effective in decreasing cell proliferation
Cc1ncnc2c1c(C(F)(F)F)cn2CC1CCNCC1 [NUCC-0000501] | not effective in decreasing cell proliferation

Same assay, conditions: Homo sapiens, MM1.S, MTS cell proliferation assay, read-out: Estimated IC50

IC50 [µM] | Structure (SMILES)
1 | Cc1cn(CC2CCNCC2)c2ncnc(Cl)c12 [NUCC-0054039]
3 | Clc1nc(Cl)c2ccn(CC3CCNCC3)c2n1 [NUCC-0000575]
3 | Cc1cn(CC2CCN(S(C)(=O)=O)CC2)c2ncnc(Cl)c12 [NUCC-0054040]
> 10 | FC(F)(F)c1cc2c(Cl)ncnc2n1CC1CCNCC1 [NUCC-0054150]
5 | O=C(N1CCC(Cn2cc(C(F)(F)F)c3c(Cl)ncnc32)CC1)C(F)(F)F [NUCC-0000593]
5 | CS(=O)(=O)N1CCC(Cn2ccc3c(Cl)ncnc32)CC1 [NUCC-0000578]
2 | CS(=O)(=O)N1CCC(Cn2cc(C(F)(F)F)c3c(Br)ncnc32)CC1 [NUCC-0000598]
5 | OCCOCn1cc(C(F)(F)F)c2c(Cl)ncnc21 [NUCC-0050715]
3 | CS(=O)(=O)N1CCC(Cn2cc(C(F)(F)F)c3c(Cl)nc(N)nc32)CC1 [NUCC-0000576]
> 10 | CS(=O)(=O)N1CCC(Cn2c(C(F)(F)F)cc3c(Cl)ncnc32)CC1 [NUCC-0054151]
2 | COc1cccc(Cn2cc(C(F)(F)F)c3c(Cl)ncnc32)c1 [NUCC-0054037]
2 | COc1ccc(Cn2cc(C(F)(F)F)c3c(Cl)ncnc32)cc1 [NUCC-0054038]
3 | CC(=O)N1CCC(Cn2ccc3c(Cl)nc(Cl)nc32)CC1 [NUCC-0000595]
7 | FC(F)(F)c1c[nH]c2ncnc(Cl)c12 [NUCC-0054043]
5 | CS(=O)(=O)N1CCC(Cn2ccc3c(Cl)nc(Cl)nc32)CC1 [NUCC-0000577]
2 | Cc1cn(CC2CCN(C(=O)OC(C)(C)C)CC2)c2ncnc(Cl)c12 [NUCC-0054036]
5 | CC(C)(C)OC(=O)N1CCC(Cn2ccc3c(Cl)nc(Cl)nc32)CC1 [NUCC-0000571]
3 | Nc1nc(Cl)c2c(C(F)(F)F)cn(CC3CCNCC3)c2n1 [NUCC-0000570]

The remaining lines, values behind:

Structure (SMILES) | IC50 [µM]
FC(F)(F)c1cn(Cc2cccnc2)c2ncnc(Cl)c12 [NUCC-0000326] | 3
Cc1c(C)n(CCN2CCOCC2)c2ncnc(Cl)c12 [NUCC-0000413] | 5
COc1cccc(Cn2c(C)c(C)c3c(Cl)ncnc32)c1 [NUCC-0000409] | 1.5
Fc1ccc(Cn2cc(C(F)(F)F)c3c(Cl)ncnc32)cc1 [NUCC-0000325] | 5
FC(F)(F)c1cn(CC2CCOCC2)c2ncnc(Cl)c12 [NUCC-0000329] | 3
Cc1c(C)n(Cc2ccccc2)c2ncnc(N)c12 [NUCC-0000362] | 10
FC(F)(F)c1cn(CC2CCNCC2)c2ncncc12 [NUCC-0000470] | 10
Cc1c(C)n(Cc2ccccc2)c2ncnc(Cl)c12 [NUCC-0000280] | 5
NC(=O)N1CCC(Cn2cc(C(F)(F)F)c3c(Cl)ncnc32)CC1 [NUCC-0000469] | 10
Cc1c(C)n(Cc2ccco2)c2ncnc(Cl)c12 [NUCC-0000363] | 10
FC(F)(F)c1cn(CCN2CCCC2)c2ncnc(Cl)c12 [NUCC-0000358] | 3
CC(C)(C)OC(=O)N1CCC(Cn2cc(C(F)(F)F)c3c(Cl)ncnc32)CC1 [NUCC-0000357] | 1.5
Cc1c(C)n(Cc2ccc(F)cc2)c2ncnc(N)c12 [NUCC-0000375] | 10
COCCn1c(C)c(C)c2c(Cl)ncnc21 [NUCC-0000361] | 10
Cc1c(C)n(CC2CCCCC2)c2ncnc(Cl)c12 [NUCC-0000359] | 10
FC(F)(F)c1cn(Cc2ccncc2)c2ncnc(Cl)c12 [NUCC-0000327] | 5
Clc1ncnc2c1c1c(n2Cc2ccccc2)CCCC1 [NUCC-0000308] | 10
Fc1ccc(Cn2c3c(c4c(Cl)ncnc42)CCCC3)cc1 [NUCC-0000412] | 2.5
Cc1c(C)n(Cc2ccc(F)cc2)c2ncnc(Cl)c12 [NUCC-0000360] | 7
Cc1ncnc2c1cc(C)n2C1O[C@H](CO)[C@@H](O)[C@H]1O (stereo partly shown) [NUCC-0000477] | 8
FC(F)(F)c1cn(Cc2ccccc2)c2ncnc(Cl)c12 [NUCC-0000315] | 3

Same assay, conditions: MTS cell proliferation assay

Estimated IC50 | Structure (SMILES)
In- active | Cc1ncnc2c1c(C(F)(F)F)cn2CC1CCN(C(=O)OC(C)(C)C)CC1 [NUCC-0000482]
In- active | Cc1ncnc2c1c(C(F)(F)F)cn2CC1CCNCC1 [NUCC-0000501]

System: acute leukemia cell lines (THP-1, K562, Kasumi-1, and U937)
Assay: Inhibition of viability of acute leukemia cell lines
Assay type: cell-based, human
Details: THP-1, K562, Kasumi-1, U937; FIGS. 11-14
Experimental: Compounds 381, 383, 409 (as test compounds) and Compound 501 (as a negative control) were administered to a variety of acute leukemia cell lines (THP-1. K562, Kasumi-1, and U937) in order to test their ability to inhibit cell growth as compared to 8-amino adenosine (8NH2-Ado) and 8-chloro adenosine (8Cl-Ado) (as positive controls) as in the previous Examples.

Structure (SMILES) | cell viability
COc1cccc(Cn2c(C)c(C)c3c(Cl)ncnc32)c1 [NUCC-0000409] | reduce cell viability significantly

System: U937 cell lines
Assay: Immunoblot of PARP cleavage and cleaved caspase 3
Assay type: cell-based, human
Details: U937 cell lysates, FIG. 17
Experimental: FIG. 17. Immunoblot of cell lysates from U937 cell lines treated with Compounds 381, 383, 409 (as test compounds) and Compound 501 (as a negative control) as compared to 8-amino adenosine (8NH2-Ado) and 8-chloro adenosine (8Cl-Ado) (as positive controls). The impact of the compounds on proteins associated with cell death was assessed via performing an immunoblot. (See FIG. 17). PARP cleavage indicated activation of the caspase cascade and cell death by induction of apoptosis. Similarly detection of cleaved caspase 3 indicated activation of caspase activity and cell death by apoptosis. GAPDH was included as a loading control to indicate approximately equal loading of protein.

Structure (SMILES) | induction of apoptosis (PARP cleavage, cleaved caspase 3)
Nc1ncnc2c1nc(N)n2[C@@H]1O[C@H](CO)[C@@H](O)[C@H]1O [Compound 8-NH2-Ado, 8-amino adenosine] | Induction of apoptosis was observed
Nc1ncnc2c1nc(Cl)n2[C@@H]1O[C@H](CO)[C@@H](O)[C@H]1O [Compound 8-Cl-Ado, 8-chloro adenosine] | Induction of apoptosis was observed
